Assay results reported in EP0329902A1, “Use of quinolizinone and quinolizine derivatives in the manufacture of medicaments for the treatment of psychosis” (MERRELL DOW PHARMACEUTICALS INC., priority 1988, dated 1989).
Counter-ions that a name gives are not always drawn.

System: Von Bezold-Jarisch Reflex induced by 5-HT
Assay: Von Bezold-Jarisch Reflex induced by 5-HT injected intravenously
Assay type: in vivo
Conditions: rat
Source text: The activity of these compounds agianst 5-HT can be assessed in vivo by measurement of the effect of the compound on the Von Bezold-Jarisch Reflex induced by 5-HT injected intravenously into the rat (see Paintal A.S., Physiol. Rev. 53, 159-227, 1973; J.R. Fozard, Naunyn-Schmiedeberg's Arch. Pharmacol., 326, 1984, 36-44). The transient cardiac slowing arises from an increased afferent vagus activity arising from stimulation by 5-HT of sensory afferent fibres in and around the heart.

[1] = doses of 0.01-0.1 mg/kg given intravenously
[2] = doses of 0.25-1 mg/kg given orally

Row | Structure (SMILES) | suppression of the Von Bezold-Jarisch Reflex response [1] | suppression of the Von Bezold-Jarisch Reflex response [2]
1 | O=C(OC1CC2CC3CC(C1)N2CC3=O)c1c[nH]c2ccccc12 (stereo not drawn) [endo-hexahydro-8-(3-indolylcarbonyloxy)-2,6-methano-2H-quinolizin-3(4H)one hydrochloride] | suppressed the response dose-dependently | suppressed the response dose-dependently
2 | Cc1cc(C)cc(C(=O)OC2CC3CC4CC(C2)N3CC4=O)c1 (stereo not drawn) [endo-8-(3,5-dimethylbenzoyloxy)hexahydro-2,6-methano-2H-quinolizin-3(4H)-one] | suppressed the response dose-dependently | suppressed the response dose-dependently
